Test results from US20060142336A1, “N-sulfonylpiperidines as metalloproteinase inhibitors (tace)” (priority 2002, published 2006).

Assays:
[1] = target: T1, proTNFα convertase enzyme (TACE) (Homo sapiens, UniProt P78536); experiment: partially purified isolated enzyme assay for proTNFα convertase (TACE) inhibition; assay type: biochemical; details: 10 μM of compound; enzyme from membranes of THP-1
T1 construct: a partially purified, isolated enzyme assay, the enzyme being obtained from the membranes of THP-1; endogenous in cells; host or cells: THP-1 cell membranes (partially purified)
T1 sequence (P78536 215-824): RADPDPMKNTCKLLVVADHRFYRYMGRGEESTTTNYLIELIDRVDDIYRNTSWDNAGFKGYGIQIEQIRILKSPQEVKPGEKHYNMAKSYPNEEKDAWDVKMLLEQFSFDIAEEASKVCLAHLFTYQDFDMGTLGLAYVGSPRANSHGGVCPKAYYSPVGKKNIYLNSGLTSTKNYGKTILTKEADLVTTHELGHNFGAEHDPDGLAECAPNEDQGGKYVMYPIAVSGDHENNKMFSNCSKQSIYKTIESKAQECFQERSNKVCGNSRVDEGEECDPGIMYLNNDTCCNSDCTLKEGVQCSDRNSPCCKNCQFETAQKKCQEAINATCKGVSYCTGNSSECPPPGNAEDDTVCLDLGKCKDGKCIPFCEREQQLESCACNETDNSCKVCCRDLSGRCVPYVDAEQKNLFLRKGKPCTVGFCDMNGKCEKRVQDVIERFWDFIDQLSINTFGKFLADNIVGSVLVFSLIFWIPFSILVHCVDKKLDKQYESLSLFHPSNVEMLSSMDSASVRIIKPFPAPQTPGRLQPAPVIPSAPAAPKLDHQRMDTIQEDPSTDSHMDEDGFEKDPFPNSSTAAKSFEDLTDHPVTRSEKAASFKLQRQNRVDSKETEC
Experimental: Recombinant human proMMP13 may be expressed and purified as described by Knauper et al. [V. Knauper et al., (1996) […] 271:1544-1550 (1996)]. […] Activity is determined by measuring the fluorescence at λex 328 nm and λem 393 nm. Percent inhibition is calculated as follows: % Inhibition is equal to the [Fluorescenceplus inhibitor−Fluorescencebackground] divided by the [Fluorescenceminus inhibitor−Fluorescencebackground].
The ability of the compounds to inhibit proTNFα convertase enzyme (TACE) may be assessed using a partially purified, isolated enzyme assay, the enzyme being obtained from the membranes of THP-1 as described by K. M. Mohler et al., (1994) Nature 370:218-220. The purified enzyme activity and inhibition thereof is determined by incubating the partially purified enzyme in the presence or absence of test compounds using the substrate 4′,5′-Dimethoxy-fluoresceinyl Ser.Pro.Leu.Ala.Gln.Ala.Val.Arg.Ser.Ser.Ser.Arg.Cys(4-(3-succinimid-1-yl)-fluorescein)-NH2 in assay buffer (50 mM Tris HCl, pH 7.4 containing 0.1% (w/v) Triton X-100 and 2 mM CaCl2), at 26° C. for 4 hours. The amount of inhibition is determined as for MMP13 except λex 485 nm and λem 538 nm were used. […]

Row | inhibition at 10 µM [1] | melting point | Compound
1 | 99% | – | Cc1ccc(COC2CCN(S(=O)(=O)CC(c3cccnc3)N(O)C=O)CC2)cc1C (racemic) [compound 42, (R/S)-2-({4-[(3,4-dimethylbenzyl)oxy]piperidin-1-yl}sulphonyl)-1-pyridin-3-ylethyl(hydroxy)formamide]
2 | 97% | – | O=CN(O)C(CS(=O)(=O)N1CCC(OCc2cccc(F)c2)CC1)c1ccccc1 (racemic) [compound 25, (R/S)-2-({4-[(3-fluorobenzyl)oxy]piperidin-1-yl}sulphonyl)-1-phenylethyl(hydroxy)formamide]
3 | – | 184.7 °C | Cc1cc(COC2CCN(S(=O)(=O)CC(C)C(=O)NO)CC2)c2ccccc2n1 (racemic) [Example 12, (R/S)-2-Methyl-3-({4-[(2-methylquinolin-4-yl)methoxy]piperidin-1-yl}sulphonyl)propionic hydroxamic acid]
